# Assay results: patent US11998566B1, “Method of synthesizing a silver nanoparticle composition using an extract of Salsola tetrandra” (KING FAISAL UNIVERSITY, priority 2023, dated 2024)
# Columns and labels:
# A. fumigatus [1] = assay: time kill assay; format: cell-based, Aspergillus fumigatus; details: 50 μg/mL; exposure for 24 hours; FIG. 1
# Method: FIG. 1 is a graph showing time-kill curves of A. fumigatus following exposure to ST-AgNPs and amphotericin B for 24 hours (values are expressed as means±SD)
# (§1) Several preliminary in vitro experiments were performed to confirm the potent antifungal potential of the green biosynthesized silver nanoparticles (ST-AgNPs) against A. fumigatus. […] Additionally, the inhibitory effect of the antifungals AMB and ST-AgNPs was also examined using light microscopy (FIGS. 2A-2C).
# A. fumigatus [2] = assay: light microscopy of mycelial growth / germination; format: cell-based, Aspergillus fumigatus; details: FIG. 2C
# Method: FIGS. 2A-2C show differences in the mycelial growth of A. fumigatus in 2A) control 2B) following exposure to ST-AgNPs and 2C) following exposure to amphotericin B. (conventional antifungal agent).
# as §1
smiles,measurement,setting,value
C[C@@H]1[C@H](O)[C@@H](C)/C=C/C=C/C=C/C=C/C=C/C=C/C=C/[C@H](O[C@@H]2O[C@H](C)[C@@H](O)[C@H](N)[C@@H]2O)C[C@@H]2O[C@](O)(C[C@@H](O)C[C@@H](O)[C@H](O)CC[C@@H](O)C[C@@H](O)CC(=O)O[C@H]1C)C[C@H](O)[C@H]2C(=O)O [amphotericin B],action on the growth of Aspergillus cells (time kill assay),A. fumigatus [1],fungistatic action
same,mycelial growth,A. fumigatus [2],substantially reduced
